In data set [1] the test system is E. coli (Swine). In words: Microbiological assay, MIC and MBC, E. coli (Swine). It counts as cell-based. The settings on record: combinations 1:1 by weight.
In data set [2] the test system is Pseudomonas strains of mastitic origin. As to conditions: cited from earlier work.
The subject of data set [3] is Salmonella typhi-murium. Nature of the data set: Microbiological assay, MIC and MBC, Salmonella typhi-murium. It counts as cell-based. As to conditions: combinations 1:1 by weight.
For data set [4], the system named is some Gram positive bacteria, Mycoplasma and the most important Treponema. The settings on record: cited from earlier work.
The test system of data set [5] is Mycoplasma hyopneumoniae. As to conditions: orally applied; enzootic pneumonia; Taylor, IPVS Congress 1982; cited from earlier work.
In data set [6] the test system is Treponema hyodysenteriae. The settings on record: orally applied; swine dysentery; British patent specification No. 2,072,012; cited from earlier work.
Data set [7] has as its system E. coli (Calf). In words: Microbiological assay, MIC and MBC, E. coli (Calf). As to conditions: combinations 1:1 by weight.
Data set [8] has as its system Staphylococcus aureus. In words: Microbiological assay, minimal inhibiting (MIC) and minimal bactericide (MBC) concentrations, Staphylococcus aureus. The settings on record: combinations 1:1 by weight.
Data set [9] relates to Pasteurella multocida. Nature of the data set: Microbiological assay, MIC and MBC, Pasteurella multocida. The settings on record: combinations 1:1 by weight.
The conditions of data set [10]: in vivo; cited from earlier work.
[11] abbreviates: Escherichia coli, read-out: MBC.
Setting [12] is: Escherichia coli, read-out: MIC.

Counter-ions that a name gives are not always drawn. Like-named read-outs stand apart in the source and are kept apart here. Where only a bound is given, the exact number is not on record here.

This is an account of results in patent publication US4650790A, “Drug combinations having synergistic effect” (Patentbureau Danubia, priority 1984, dated 1987).

For orientation: MBC means the lowest tested concentration that kills the bacteria rather than only halting them. For orientation: MIC means the smallest concentration in the dilution series that meets the test's criterion for growth inhibition.

Turning to `CN[C@@H]1[C@@H](O[C@H]2O[C@H](CO)[C@@H](N)[C@H](O)[C@H]2O)OC2C[C@@H](N)[C@@H](O[C@H]3[C@H](O)[C@@H](O)[C@H](N)C[C@@H]3N)OC2[C@@H]1O` (stereo partly shown) [Apramycin], in data set [1] (setting [11]), the MBC worked out at 25 µg/mL. In addition, the MIC in [1] (setting [12]) amounted to 25 µg/mL. The “effect against Pseudomonas strains of mastitic origin” value in data set [2] is “particularly strong effect”.

On to `NC[C@H]1O[C@H](O[C@H]2[C@H](O)[C@@H](O[C@H]3O[C@H](CO)[C@@H](O)[C@H](N)[C@H]3O)[C@H](N)C[C@@H]2N)[C@H](O)[C@@H](O)[C@@H]1O` [Kanamycin], for which the minimal bactericidal concentration (MBC) was 25 µg/mL in [1] (setting [11]) and 50 µg/mL in data set [3] (Salmonella enterica, read-out: MBC). For the same compound, the minimal inhibitory concentration (MIC) stood at 10 µg/mL in data set [1] (setting [12]) and 25 µg/mL in data set [3] (Salmonella enterica, read-out: MIC).

In the case of `NC[C@H]1O[C@H](O[C@H]2[C@H](O)[C@@H](O[C@H]3O[C@H](CO)[C@@H](O)[C@H](N)[C@H]3O)[C@H](N)C[C@@H]2N)[C@H](N)C[C@@H]1O` [Tobramycin], in [1] (setting [11]), the MBC stood at 5 µg/mL. In [1] (setting [12]), the MIC was determined as 1 µg/mL.

In the case of `C=C[C@]1(C)C[C@@H](OC(=O)CSCCN(CC)CC)[C@]2(C)[C@H](C)CC[C@]3(CCC(=O)[C@H]32)[C@@H](C)[C@@H]1O` [Tiamulin, 14-desoxy-14-[(2-diethyl-amino-ethyl)-mercapto-acetoxy]-mutilin hydrogen fumarate], in data set [1] (setting [11]), the MBC worked out at 100 µg/mL. The MIC in data set [1] (setting [12]) was 50 µg/mL. For the same compound, the “effectiveness against some Gram positive bacteria, Mycoplasma and Treponema” value in data set [4] is “effective against some Gram positive bacteria, Mycoplasma and the most important Treponema”. In addition, the “effectiveness against Mycoplasma hyopneumoniae” value in data set [5] was “extremely effective”. Moreover, the “effectiveness against Treponema hyodysenteriae” value in data set [6] was “extremely effective”.

Regarding Gentamycin, the MBC is 5 µg/mL in data set [7]; 5 µg/mL in data set [1]; 5 µg/mL in data set [3]; 5 µg/mL in [8]; 1 µg/mL in data set [9]. For the same compound, the MIC in [7] was 5 µg/mL; in data set [1], 5 µg/mL; in [3], 5 µg/mL; in data set [8], 0.5 µg/mL; in [9] it was less than 0.5 µg/mL.

For the compound `NC[C@@H]1O[C@H](O[C@H]2[C@@H](O)[C@H](O[C@@H]3[C@@H](O)[C@H](N)C[C@H](N)[C@H]3O[C@H]3O[C@H](CN)[C@@H](O)[C@H](O)[C@H]3N)O[C@@H]2CO)[C@H](N)[C@@H](O)[C@@H]1O` [Neomycin], the minimal bactericidal concentration (MBC) in data set [7] is more than 200 µg/mL; in data set [1] it was 10 µg/mL; in [3], 25 µg/mL; in data set [8], 25 µg/mL; in data set [9], 5 µg/mL. Besides, the MIC in data set [7] was more than 200 µg/mL; in data set [1], 5 µg/mL; in [3] it was 10 µg/mL; in [8] it was 10 µg/mL; in data set [9], 1 µg/mL. Also, the nephrotoxic properties result in [10] is “may cause azotaemia and oliguria”.

For the compound `[H]/N=C(/N)N[C@H]1[C@H](O)[C@@H](O)[C@H](O[C@@H]2O[C@@H](C)[C@](O)(C=O)[C@H]2O[C@@H]2O[C@@H](CO)[C@H](O)[C@@H](O)[C@@H]2NC)[C@@H](N/C(N)=N\[H])[C@@H]1O` [Streptomycin], in data set [1] (setting [11]), the MBC is more than 200 µg/mL. The MIC in data set [1] (setting [12]) was found to be 100 µg/mL.
